# Laboratory results from patent US12498382B2, “Biomarkers for vitiligo” (INCYTE CORPORATION, priority 2019, dated 2025).
# Tested on: HaCaT cells
# Assay: Normalized expression of target genes in HaCaT cells stimulated with TNFα and IFNγ in presence/absence of JAK inhibitors (QuantiGene Plex)
# Assay type: cell-based, human
# Conditions: TNFα+IFNγ 25 ng/mL
# Description: Transformed human keratinocyte (HaCaT) cells were purchased from AddexBio (Catalog #T0020001) and cultured as outlined in Example 5. […] After 48 hours, cell culture media was removed from 24 well plates and replaced with 250 uL of media containing serial diluted drug, then incubated for 15 minutes at 37° C./5% CO2. After drug incubation, 250 uL of combinatory stimulation containing Recombinant Human Interferon gamma (R&D Systems, Catalog #285-IF-100) and Recombinant Human Tumor Necrosis Factor alpha (R&D Systems, Catalog #210-TA-020) was added to plates. The final concentration of Recombinant Human Interferon gamma and Recombinant Human Tumor Necrosis Factor alpha was 25 ng/mL of each cytokine. Cytokine stimulation added to wells containing drug brought the final concentrations for each drug treatment to 25 nM, 50 nM, 100 nM, and 200 nM. Treated plates were mixed by gentle agitation for 30 seconds then incubated for 24 hours at 37° C./5% CO2. At the end of the 24 hour incubation media was immediately removed from each plate.
# RNA was isolated from HaCaT cells using the QuantiGene Plex Assay reagents and protocols (Affymetrix, Catalog #QGP-232-M18042302) according to the manufacturer's guidelines. Cells were washed with 1×DPBS then lysed by incubation with provided QuantiGene lysis buffer for 30 minutes at 50-55° C. Cell lysates were incubated for 18-24 hours at 55° C. with capture beads and probe set designed to specifically hybridize to mRNA from targets of interest. Genes included housekeeping genes (e.g., HPRT1 and GAPDH) used for the normalization of the results. After the 18-24 hour incubation signal was amplified utilizing branched DNA methodologies, according to the manufacturer's procedures (Affymetrix, Catalog #QGP-232-M18042302). After hybridization and wash steps assay plate was read on the Luminex 200 and data were expressed as Net Median Fluorescence Intensity. Data was then normalized to the Net Median Fluorescence Intensity of the housekeeping gene HPRT1 (Table 14).
structure (smiles),measurement,setting,value
"N#CCC1(n2cc(-c3ncnc4[nH]ccc34)cn2)CN(C2CCN(C(=O)c3ccnc(C(F)(F)F)c3F)CC2)C1 [Cpd B, {1-{1-[3-fluoro-2-(trifluoromethyl)isonicotinoyl]piperidin-4-yl}-3[4-(7H-pyrrolo[2,3-d]pyrimidin-4-yl)-1H-pyrazol-1-yl]azetidin-3-yl}acetonitrile]",AREG normalized expression MFI,Drug Conc 25 nM,737.85 ± 22.1
same,CCL17 normalized expression MFI,Drug Conc 25 nM,3.37 ± 0.54
same,CCL18 normalized expression MFI,Drug Conc 25 nM,2.12 ± 0.32
same,FLG normalized expression MFI,Drug Conc 25 nM,71.57 ± 9.14
same,IL6 normalized expression MFI,Drug Conc 25 nM,130.24 ± 3.84
same,IL8 normalized expression MFI,Drug Conc 25 nM,381.74 ± 10.25
same,IL17A normalized expression MFI,Drug Conc 25 nM,0.88 ± 0.13
same,IL22 normalized expression MFI,Drug Conc 25 nM,1.21 ± 0.24
same,IL23A normalized expression MFI,Drug Conc 25 nM,43.92 ± 1.89
same,IL31 normalized expression MFI,Drug Conc 25 nM,1.33 ± 0.33
same,ILIA normalized expression MFI,Drug Conc 25 nM,1288.02 ± 20
same,IYK2 normalized expression MFI,Drug Conc 25 nM,292.92 ± 7.99
same,JAK1 normalized expression MFI,Drug Conc 25 nM,216.23 ± 6.41
same,JAK2 normalized expression MFI,Drug Conc 25 nM,109.39 ± 2.8
same,JAK3 normalized expression MFI,Drug Conc 25 nM,0.84 ± 0.12
same,LOR normalized expression MFI,Drug Conc 25 nM,43.2 ± 14.11
same,S100A7 normalized expression MFI,Drug Conc 25 nM,5.45 ± 1.02
same,S100A12 normalized expression MFI,Drug Conc 25 nM,1.21 ± 0.16
same,SERPINB3 normalized expression MFI,Drug Conc 25 nM,3.16 ± 0.43
same,SERPINB4 normalized expression MFI,Drug Conc 25 nM,4.23 ± 0.7
same,STAT1 normalized expression MFI,Drug Conc 25 nM,2861.37 ± 204.56
same,STAT3 normalized expression MFI,Drug Conc 25 nM,1466.73 ± 66.75
same,STAT4 normalized expression MFI,Drug Conc 25 nM,6 ± 0.46
same,STAT5A normalized expression MFI,Drug Conc 25 nM,23.69 ± 1.63
same,STAT5B normalized expression MFI,Drug Conc 25 nM,40.74 ± 2.3
same,STAT6 normalized expression MFI,Drug Conc 25 nM,1004.82 ± 23.76
same,TNF normalized expression MFI,Drug Conc 25 nM,28.04 ± 1.24
same,VEGFA normalized expression MFI,Drug Conc 25 nM,553.23 ± 11.38
same,AREG normalized expression MFI,Drug Conc 50 nM,701.57 ± 12.75
same,CCL17 normalized expression MFI,Drug Conc 50 nM,3.06 ± 0.34
same,CCL18 normalized expression MFI,Drug Conc 50 nM,2.2 ± 0.35
same,FLG normalized expression MFI,Drug Conc 50 nM,74.31 ± 8.77
same,IL6 normalized expression MFI,Drug Conc 50 nM,122.69 ± 4.36
same,IL8 normalized expression MFI,Drug Conc 50 nM,376.41 ± 13.16
same,IL17A normalized expression MFI,Drug Conc 50 nM,0.92 ± 0.14
same,IL22 normalized expression MFI,Drug Conc 50 nM,1.15 ± 0.18
same,IL23A normalized expression MFI,Drug Conc 50 nM,45.85 ± 2.3
same,IL31 normalized expression MFI,Drug Conc 50 nM,1.22 ± 0.29
same,ILIA normalized expression MFI,Drug Conc 50 nM,1258.76 ± 23.63
same,IYK2 normalized expression MFI,Drug Conc 50 nM,287.31 ± 11.08
same,JAK1 normalized expression MFI,Drug Conc 50 nM,210.42 ± 10.89
same,JAK2 normalized expression MFI,Drug Conc 50 nM,101 ± 2.26
same,JAK3 normalized expression MFI,Drug Conc 50 nM,0.83 ± 0.15
same,LOR normalized expression MFI,Drug Conc 50 nM,43.96 ± 15.87
same,S100A7 normalized expression MFI,Drug Conc 50 nM,7.08 ± 1.99
same,S100A12 normalized expression MFI,Drug Conc 50 nM,1.04 ± 0.15
same,SERPINB3 normalized expression MFI,Drug Conc 50 nM,2.3 ± 0.34
same,SERPINB4 normalized expression MFI,Drug Conc 50 nM,3.76 ± 0.66
same,STAT1 normalized expression MFI,Drug Conc 50 nM,2855.28 ± 166.89
same,STAT3 normalized expression MFI,Drug Conc 50 nM,1437.28 ± 60.69
same,STAT4 normalized expression MFI,Drug Conc 50 nM,6.22 ± 0.42
same,STAT5A normalized expression MFI,Drug Conc 50 nM,22.32 ± 2.16
same,STAT5B normalized expression MFI,Drug Conc 50 nM,42.9 ± 2.44
same,STAT6 normalized expression MFI,Drug Conc 50 nM,990.05 ± 21.06
same,TNF normalized expression MFI,Drug Conc 50 nM,28.66 ± 2.58
same,VEGFA normalized expression MFI,Drug Conc 50 nM,545.93 ± 9.71
same,AREG normalized expression MFI,Drug Conc 100 nM,731.24 ± 25.4
same,CCL17 normalized expression MFI,Drug Conc 100 nM,2.87 ± 0.33
same,CCL18 normalized expression MFI,Drug Conc 100 nM,2.01 ± 0.44
same,FLG normalized expression MFI,Drug Conc 100 nM,74.99 ± 8.16
same,IL6 normalized expression MFI,Drug Conc 100 nM,111.07 ± 4.74
same,IL8 normalized expression MFI,Drug Conc 100 nM,387.33 ± 19.5
same,IL17A normalized expression MFI,Drug Conc 100 nM,0.85 ± 0.15
same,IL22 normalized expression MFI,Drug Conc 100 nM,1 ± 0.17
same,IL23A normalized expression MFI,Drug Conc 100 nM,53.05 ± 3.22
same,IL31 normalized expression MFI,Drug Conc 100 nM,1.04 ± 0.31
same,ILIA normalized expression MFI,Drug Conc 100 nM,1162.35 ± 23.34
same,IYK2 normalized expression MFI,Drug Conc 100 nM,284.15 ± 9.62
same,JAK1 normalized expression MFI,Drug Conc 100 nM,205.03 ± 11.49
same,JAK2 normalized expression MFI,Drug Conc 100 nM,94.5 ± 2.65
